Experiments:
estrogen receptor (ER) [1] = assay: adenoERreporter assay in breast cancer cells from metastatic effusions (pleural, ascites); assay type: cell-based, human
Text: In the case of metastatic fluid, 100 mls of the fluid was sent for cytological examination and staining for ER and PR. The remaining fluid was centrifuged and the cell pellets were pooled. This was re-suspended in RPMI-1640/1% FCS and tumour cell numbers estimated as before. If the cells were in clusters, trypsin/EDTA (Sigma, Poole, UK) was used to obtain single cell suspensions before filtering to remove any debris. The remaining steps were as above. The purified cells were either infected immediately or cultured for a few days prior to infection.
(§1) For infections of primary cells, 6-10,000 cells/well were allowed and exposed to the given quantity of virus, after which they were pelleted and re-supended in 200 ul of PR free/5% DSS medium containing the appropriate ligands prior to plating into 96-well plates.
(§2) Reporter Gene Assay 48 hours after virus infection, 20 ul of 20% Triton in PBS was added to each well and incubated at RT for 10 minutes. […] (CRPG) made up in TBS at a concentration of 8 mg/ml was then added to the wells and the plate was incubated, foil-wrapped, at 37° C. until a colour change was observed. Plate readings were taken at a wavelength of 547 nm.
(§3) We purified breast cancer cells from metastatic fluid, both pleural and ascites as well as fine needle aspirates (FNA) from recurrent breast cancer. These cells were counted and infected with adenoERreporter and after 48 hours a β-gal assay was performed. We have infected 9 metastatic effusions including 2 cell lines of passage number two, derived from pleural effusions and 4 FNAs. Tables 3 and 4 show the treatment history and characteristics of the patients that provided the samples. Where possible, some of the fluid was sent for cytology and ER staining.

estrogen receptor (ER) [2] = assay: adeno-reporter assay in purified primary breast cancer cells (tumour, lymph node); assay type: cell-based, human; conditions: for Reporter response: E2 10 nM, OHT 100 nM, ICI 100 nM, 48 h
Method: The product was then filtered through a nylon mesh (Lockertex Ltd, Merseyside, UK) and the filtrate centrifuged at 2000 rpm, at room temperature (RT). The pellet was re-suspended in 9 mls of RPMI/1% FCS and a cell count performed to estimate the number of tumour cells in the preparation. […] A count of viable tumour cells was performed using trypan blue (Sigma, Poole, UK) prior to seeding in breast complete medium (DMEM/F-12 containing, 15 mM Hepes, 2 mM L-glutamine, 100U/ml penicillin, O. 1 mg/ml streptomycin, 50 U/ml polymixin B, 2.5 μg/ml amphotericin B, 5 μg/ml insulin, 10 μg/ml apo-transferrin, 100 μM ethanolamine, 1 μg/ml hydrocortisone, 10 ng/ml EGF) plus 5% FCS) for culture. The cells were used for experiments on day 3 after the initial plating.
as §1
Cells were incubated for 48 hours following infections unless stated otherwise.
as §2
We have used the adeno-reporter to infect purified cells from breast cancer and lymph nodes of 19 patients. The reporter assay was performed in a blinded fashion since the IHC report of ER status was not available until after the experiments were complete. Viral infections were performed in suspension so as not to loose cancer cells since they were only loosely adherent. Following exposure to the virus for an hour, the cells were washed to remove excess virus and then plated and incubated in PR free/5% DSS supplemented with the given ligands for 48 hours.

estrogen receptor (ER) [3] = assay: adenoERreporter assay in fine needle aspirates (FNA) from recurrent breast cancer; assay type: cell-based, human
Method: Cells obtained from FNAs were collected in PBS (Sigma, Poole, UK) containing 2% FCS. If the aspirate was bloody, erythrocyte lysis buffer (0.155M NH4Cl, 10 mM KHCO3, 0.1 mM EDTA, pH 7.4) was used to lyse the red blood cells and after a further wash with PBS, the cells were re-suspended in culture media for counting and immediate infections.
as §1, §2
as §3, with “staining. However, this was not always feasible due to the variability of cancer cells in the metastatic fluid.” for “staining.”

[4] = tested on: malignant mammary epithelial cells; assay: effects of estradiol and tamoxifen on survival of purified malignant mammary epithelial cells (Trypan blue counts); assay type: cell-based, human; conditions: for effect on cell death: ER positive purified breast cancer cells, E2 10 nM, OHT 100 nM
Method: (§4) 1×10^5 cells were plated into the wells of 96 well plates. […] Total and viable (Trypan blue) cell counts were measured during the time course of the experiment.
(§5) Normal cells were studied at several time points whereas due to limited number of cells, studies were limited to 2 time points in tumors. Trypan Blue staining determined viable cell numbers.

estrogen receptor (ER) [5] = assay: viral ER reporter in ER negative breast cancer cell lines; assay type: cell-based, human; conditions: virus 100:1
Method: FIG. 3: Reporter activity in variety of estrogen receptor alpha positive (MCF-7, T47-D, ZR75-1, BT474) and negative (Cal-51, SkBr3, and MDA-MB231 cell lines). For each figure, the order is as follows: (1) refers to the no ligand control.
For adenovirus infections, cell lines were plated in 96 wells at the given density in phenol red free DMEM supplemented with 5% double-stripped serum (PR/5% DSS). The following day cells were exposed to the given quantity of plaque forming units per cell (multiplicity of infection, MOI) in PR/SF medium. This was incubated at 37° C. for 1 hour after which the media was replaced by PR free/5% DSS containing the ligands.
as §2
We went on to test the virus reporter in a variety of ER positive and ER negative cell lines. Again 0.5×10^5 cells were infected with 100 virus per cell (100:1). Using the GFP virus it was evident that the infectability of the cell lines was variable. […]

[6] = tested on: normal mammary epithelial cells; assay: effects of estrogen and tamoxifen on purified normal mammary epithelial cells; assay type: cell-based, human; conditions: purified normal breast cells
Method: Cell viability was assessed using exclusion of Trypan blue staining. Proliferation of cells in culture was assessed by measuring tritiated thymidine (3HTdR) incorporation into DNA and using the MTS assay. For ^3HTdR-labelling, purified cells were seeded into the wells of 24-well dishes. The medium was subsequently changed for 0.5 ml of ^3HTdR-supplemented thymidine-free medium (RPMI, 2 mM L-glutamine, 100U/ml penicillin, 0.1 mg/ml streptomycin plus dialysed 2% FCS). The amount of incorporated ^3HTdR in the cultures was measured by scintillation counting following precipitation with trichloroacetic acid. MTS assays were carried out using the Cell Titre 96 (Promega, UK), according to manufacturer's protocols.
as §4, §5

ER positive tumours = conditions: cited from earlier work
[7] = Table 2 patient 5 Ln, ER+/PR−, Pre
[8] = Table 2 patient 8, ER+++/PR−, Post
[9] = Table 2 patient 12 Tu, Anaplastic small cell carcinoma, ER−/PR−
[10] = Table 2 patient 13, ER−/PR−, Post

Compound: 4-hydroxytamoxifen [4-OHT]
- effect on ER activity (estrogen receptor (ER) [1]; patient 4 (table 3), ascites, no previous treatment): inhibitory
- Reporter response (estrogen receptor (ER) [2]; [7]): ns
- Reporter response (estrogen receptor (ER) [2]; [8]): ns
- Reporter response (estrogen receptor (ER) [2]; Table 2 patient 12 Ln): ns
- Reporter response (estrogen receptor (ER) [2]; [9]): ns
- Reporter response (estrogen receptor (ER) [2]; [10]): ns
- Reporter response (estrogen receptor (ER) [2]; Table 2 patient 15 Ln): ns
- Reporter response (estrogen receptor (ER) [2]; Table 2 patient 15 Tu, ER−/PR−): ns
- Reporter response (estrogen receptor (ER) [2]; Table 2 patient 16 Ln): ns
- Reporter response (estrogen receptor (ER) [2]; Table 2 patient 16 Tu, Post): ns
- Reporter response (estrogen receptor (ER) [2]; Table 2 patient 17): ns
- Reporter response (estrogen receptor (ER) [2]; Table 2 patient 18, ER−/PR−): ns
- Reporter Assay: inhibition (estrogen receptor (ER) [3]; FNA summary table, N = 1, IHC ER−/PR−, ?Responder): OHT/ICI inhibit by × 1.8

Compound: C[C@]12CC[C@@H]3c4ccc(O)cc4CC[C@H]3[C@@H]1CC[C@@H]2O [E2, 17β-estradiol]
- stimulatory effect on the reporter above the background activity (estrogen receptor (ER) [1]; ER positive relapsed patients, compared with primary breast tumour): less of a stimulatory effect
- Reporter Activity (estrogen receptor (ER) [1]; Table 3 patient 1) T2G2NxM0, PE, primary ER++/PR−, prior Tamoxifen 3y, Lentaron 5m): Ns
- effect of estrogen on cells ([4]; ER negative breast cancer cells): no effect
- effect on cell death [4]: reduction in cell death
- effect on ERE driven β-gal reporter / baseline activity (estrogen receptor (ER) [5]): no appreciable effect
- Reporter response (estrogen receptor (ER) [2]; [7]): ns
- Reporter response (estrogen receptor (ER) [2]; [8]): ns
- Reporter response (estrogen receptor (ER) [2]; Table 2 patient 12 Ln): ns
- Reporter response (estrogen receptor (ER) [2]; [9]): ns
- Reporter response (estrogen receptor (ER) [2]; [10]): ns
- Reporter response (estrogen receptor (ER) [2]; Table 2 patient 15 Ln): ns
- Reporter response (estrogen receptor (ER) [2]; Table 2 patient 15 Tu, ER−/PR−): ns
- Reporter response (estrogen receptor (ER) [2]; Table 2 patient 16 Ln): ns
- Reporter response (estrogen receptor (ER) [2]; Table 2 patient 16 Tu, Post): ns
- Reporter response (estrogen receptor (ER) [2]; Table 2 patient 17): ns
- Reporter response (estrogen receptor (ER) [2]; Table 2 patient 18, ER−/PR−): ns
- expression of estrogen-regulated genes after estrogen exposure [6]: expressing both PR and PS2
- Reporter Activity (estrogen receptor (ER) [3]; Table 4 patient 1) T3G2N1M0, FNA ER−/PR−, no prior endocrine treatment): Ns

Compound: CC/C(=C(\c1ccccc1)c1ccc(OCCN(C)C)cc1)c1ccccc1 [tamoxifen]
- increase in reporter activity in the presence of tamoxifen (estrogen receptor (ER) [1]; patient 1 (Table 3)): approximately 10 fold
- response of cells to tamoxifen (estrogen receptor (ER) [1]; patient 3, table 3, previous tamoxifen for one year): continued to respond to tamoxifen
- effect on reporter compared with E2 (estrogen receptor (ER) [1]; patient samples 1, 5 and 6 (Table 3) and patient 6 (Table 4), relapsed after tamoxifen): an effect at least equivalent to E2
- cell numbers after tamoxifen treatment compared to estradiol treatment ([4]; 7 tumors studied, responders all ER positive, viable counts by Trypan Blue): Four out of the 7 tumors studied showed significant reduction in cell numbers
- effect on cell death [4]: reversed
- patients with ERα-positive disease that do not respond (ER positive tumours; breast cancer patients, adjuvant/metastatic treatment): approximately 30%
- patients with ER positive tumours that fail to respond (ER positive tumours; primary endocrine therapy (Gazet et al 1987)): ~50%
- effect on reporter activity across patient samples (estrogen receptor (ER) [2]; purified cells from breast cancer and lymph nodes of 19 patients): inhibitory in most cases but did show some agonistic activity in a proportion of patients
- effect on proliferation [6]: decrease

— US20050100888A1, “Methods based on hormone dependency of primary cancer cells” (Imperial College Innovations Limited, priority 2002, published 2005)
